Test results published in US20160368919A1, “NOVEL PYRIDINE PYRAZINONES AS BET-FAMILY BROMODOMAIN INHIBITORS” (Pfizer Inc., priority 2015, published 2016).
“Also recorded” adds a separate entry of the source.

Assays:
BRD4 BD1 = target: T1, BRD4 BD1 (Homo sapiens, UniProt O60885); assay: BRD4 BD1 Fluorescence Polarization (FP) competition binding assay; settings: BRD4 BD1 40 nM, probe PFI-411FP 2 nM
T1 construct: His-tagged BRD4 BD1 (44-160); made in house
Summary of the method: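 BRD4 BD1 (40 nM) preincubated 15 min at 20° C. with compound (120 to 0.0012 μM) in HEPES pH 7.4 with 0.08% BSA, then 2 nM PFI-411FP tracer added for 60 min. Fluorescence polarization read (ex 620/em 688 nm); IC50 from four-parameter fit, converted to Ki via Nikolovska-Coleska equation.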

[1] = test system: LPS-induced IL-6 production in human whole blood; assay: IL-6 human whole blood (HWB) assay, LPS-stimulated, HTRF detection; type: cell-based; settings: 1 ng/ml LPS, 4 hours
MM1.S cells = assay: MM1.S cell proliferation assay (CellTiter-Glo); type: cell-based
Protocol: MM1.S (dexamethasone sensitive) and OPM-2 cells were purchased from ATCC and maintained in RPMI-1640 medium with 10% fetal bovine serum at 37 degrees, 5% CO2. Cells were seeded at 10,000 cells/well in 100 uL medium. The following day compounds or control vehicle (DMSO) were added at indicated concentrations in 10 ul volume. Compound treated OPM-2 cells and MM1.S cell were analyzed for cell density at 72h and 96h, respectively, using CellTiter-Glo® (CTG) reagent (Promega). The CTG assay measures the amount of ATP present, which indicates the number of viable cells in culture.

[2] = test system: c-MYC and MYB expression in MM1.S cells; assay: Biomarker analysis in MM1.S cells (RT-PCR, Western blot); type: cell-based
Protocol: MM1.S cells (1,000,000 cells) were seeded in […] in 10 mL medium. On the following day cells were treated with indicated compounds for 0, 2, 4, 6, 8, 16, and 24 hours. Cells were collected, washed in PBS, and split for western blot and RNA analysis. For western blot, cells were lysed in RIPA buffer and 30 ug protein was loaded on a 4-12% bis-tris gel under denaturing conditions and transferred to nitrocellulose. Blots were probed with primary antibodies for c-MYC (Cell Signaling #9402) and GAPDH (Cell Signaling #2118) diluted at 1:1000 and then secondary antibodies anti-mouse 680 (LiCor) and anti-rabbit 800 (Licor) and imaged on a LiCor reader. For gene expression analysis, total RNA was prepared using Qiagen total RNA kit (Qiagen) and cDNA was prepared from 100 ng RNA (high capacity cDNA kit; Applied Biosystems). Relative gene expression was analyzed on an Applied Biosystem 7900 qPCR thermocycler using gene expression assays for MYC (Hs00153408_m1), MYB (Hs00920556_m1), and GAPDH (Hs02758991_g1). Relative gene expression is calculated relative to DMSO and normalized to GAPDH expression.

LnCaP cells, AR(+) = assay: CRPC cell proliferation assay (CellTiter-Glo), LnCaP; type: cell-based; settings: CTG at 96h
Protocol: Castrate-Resistant Prostate Cancer (CRPC) Cell Proliferation Assay • Cells were seeded into 96-well plates at 2,000-10,000 cells/well in 100 uL medium. Four AR(+) cell lines (LnCaP, C4-2 (parental), C4-2AR-WT and C4-2AR—F876L) and one AR(−) cell line (DU-145) were studied. Compound treated cells were analyzed for cell density at 96h, using CellTiter-Glo® (CTG) reagent (Promega).

[3] = 0.5 uM, RT-PCR time-course 2 to 24 hours

IC50 (BRD4 BD1): 0.0622 µM | IC50 [1]: 0.53 µM | IC50 (MM1.S cells; Homo sapiens, MM1.S, CTG at 96h): 0.002 µM | IC50 (LnCaP cells, AR(+); Homo sapiens): 0.32 µM
SMILES: CCC(=O)N(C)c1ccc2nc(NCCC(=O)O)c(=O)n([C@@H](CC)c3ccccc3)c2n1 [Example 10, N-{6-[methyl(propanoyl)amino]-3-oxo-4-[(1S)-1-phenylpropyl]-3,4-dihydropyrido[2,3-b]pyrazin-2-yl}-beta-alanine]
inhibition of proliferation of MM1.S cells (MM1.S cells; dose dependent manner, FIG. 1.A): inhibited proliferation | expression of c-MYC mRNA relative to GAPDH [2, 3]: strongly down-regulated; also recorded: down-regulated | relative expression of MYB mRNA [2, 3]: down-regulated | relative expression of c-MYC protein ([2]; Western blot, 2, 4, 6, 8, 16 and 24 hours): down-regulated | Max % Inh (LnCaP cells, AR(+)): 69%
